The assay has as its target T1, human SSTR5 (Homo sapiens, UniProt P35346).
T1 construct: expressed in transfected cells
As to the kind of experiment: Inositol phosphate accumulation assay (IP1 HTRF, antagonist mode). Type of assay: cell-based. The conditions noted are these: CHO-K1 cells co-expressing human SSTR5 with Gqi5, SST28 agonist at concentration generating 90% of full activation. The text has this: CHO-K1 cells stably co-expressing human SSTR5 with Gqi5 were developed using Jump-In technology from Thermo-Fisher. Gqi5 is the mouse G alpha q protein, that was modified to interact with Gi-coupled GPCRs as described previously (Coward, P.; Chan, S. D.; Wada, H. G.; Humphries, G. M.; Conklin, B. R. Chimeric G proteins Allow a High-Throughput Signaling Assay of Gi-Coupled Receptors. Anal Biochem. 1999, 270(2),242-248).
Co-expression of Gqi5 with SSTR5 allowed monitoring of SSTR5 activity by following IP1 accumulation. The assay was performed in a 384-well plate format using the IP1 assay kit from Cis-Bio in an antagonist mode, i.e., pre-incubation with antagonist following by receptor activation by agonist at a concentration generating 90% of full activation. Frozen cells expressing human SSTR5 were thawed, washed, and then plated in DMEM supplemented with 10% FBS and non-essential amino acids. 40 μL of 2.5×10^5 cells/mL were plated on a Poly D-Lysine coated 384-well white plate. The cells were then incubated for 16 hr. at 37° C/5% CO2. After 16 hour the medium was removed, and 10 μL of stimulation buffer was added to the cells. Test compounds were dissolved in DMSO at concentrations 2000-fold that of the final assay concentrations. 7.5 nLcompound solutions were transferred to the cell plates using a Labcyte Echo® acoustic liquid handler. The plates were then incubated for 15 minutes at 37° C/5%CO2. After the first incubation, 5 μL of 30 nM SST28 were added to the cells, and the cells were incubated for 90 minutes at 37° C/5%CO2. 5 μL of detection buffer (prepared as described in the IP-1 kit) was added to each well, and the plates were incubated at RT for 1 hour.
TR-FRET was measured using a ClarioSTAR plate reader, calculating the ratio between emissions at 665 nm and 620 nm (HTRF ratio). The HTRF ratio for positive (Max) and negative (Min) controls were used to normalize HTRF data and generate values for % inhibition. IC50 and maximal inhibition values were determined using a standard 4-parameter fit.

T1 sequence (P35346 whole entry): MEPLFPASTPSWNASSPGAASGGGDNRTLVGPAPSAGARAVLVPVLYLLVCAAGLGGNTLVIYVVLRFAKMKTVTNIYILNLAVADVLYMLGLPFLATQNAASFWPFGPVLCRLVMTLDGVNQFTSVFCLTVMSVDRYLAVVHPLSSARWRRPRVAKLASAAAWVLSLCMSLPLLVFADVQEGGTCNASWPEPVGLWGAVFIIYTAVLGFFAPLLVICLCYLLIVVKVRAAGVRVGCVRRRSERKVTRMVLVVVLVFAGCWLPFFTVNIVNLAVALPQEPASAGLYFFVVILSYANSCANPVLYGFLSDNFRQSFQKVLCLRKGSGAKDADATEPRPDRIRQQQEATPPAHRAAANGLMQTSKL

As for `CCOc1cc(C(=O)OC)c(C2CC2)cc1CN1CCC2(CC1)CC(=O)N(c1ccc(C(=O)NCCC(=O)O)cc1)C2` [Example 25, 3-(4-(8-(5-cyclopropyl-2-ethoxy-4-(methoxycarbonyl)benzyl)-3-oxo-2,8-diazaspiro[4.5]decan-2-yl)benzamido)propanoic acid], the IC50 was 0.1 to 1 µM.

As to `CCOc1cc(C(=O)OC)c(C2CC2)cc1CN1CCC2(CC1)CC(=O)N(c1ccc(C(=O)NCCOCCO)cc1)C2` [Example 26, methyl 2-cyclopropyl-5-ethoxy-4-((2-(4-((2-(2-hydroxyethoxy)ethyl)carbamoyl)phenyl)-3-oxo-2,8-diazaspiro[4.5]decan-8-yl)methyl)benzoate], the IC50 was in the range of 0.1 to 1 µM.

On to `CCOc1cc(C(=O)OC)c(C2CC2)cc1CN1CCC2(CC1)CC(=O)N(c1ccc(C(=O)NCCCO)cc1)C2` [Example 27, methyl 2-cyclopropyl-5-ethoxy-4-((2-(4-((3-hydroxypropyl)carbamoyl)phenyl)-3-oxo-2,8-diazaspiro[4.5]decan-8-yl)methyl)benzoate], for which the IC50 was greater than 5 µM.

`CCOc1cc(C(=O)OC)c(C2CC2)cc1CN1CCC2(CC1)CC(=O)N(c1ccc(C(=O)NCCC[N+](C)(C)C)cc1)C2` [Example 28, 3-(4-(8-(5-cyclopropyl-2-ethoxy-4-(methoxycarbonyl)benzyl)-3-oxo-2,8-diazaspiro[4.5]decan-2-yl)benzamido)-N,N,N-trimethylpropan-1-aminium] came in with an IC50 greater than 5 µM.

With `CCOc1cc(C(=O)OC)c(C2CC2)cc1CN1CCC2(CC1)CC(=O)N(c1ccc(C(=O)NCCS(=O)(=O)O)cc1)C2` [Example 29, 2-(4-(8-(5-cyclopropyl-2-ethoxy-4-(methoxycarbonyl)benzyl)-3-oxo-2,8-diazaspiro[4.5]decan-2-yl)benzamido)ethane-1-sulfonic acid], the IC50 is 0.1 to 1 µM.

`CCOc1cc(C(=O)OC)c(C2CC2)cc1CN1CCC2(CC1)CC(=O)N(c1ccc(C(=O)NCCCS(=O)(=O)O)cc1)C2` [Example 30, 3-(4-(8-(5-cyclopropyl-2-ethoxy-4-(methoxycarbonyl)benzyl)-3-oxo-2,8-diazaspiro[4.5]decan-2-yl)benzamido)propane-1-sulfonic acid] gave an IC50 greater than 5 µM.

As for `CCOc1cc(C(=O)OC)c(C2CC2)cc1CN1CCC2(CC1)CC(=O)N(c1ccc(C(=O)NCCCCS(=O)(=O)O)cc1)C2` [Example 31, 4-(4-(8-(5-cyclopropyl-2-ethoxy-4-(methoxycarbonyl)benzyl)-3-oxo-2,8-diazaspiro[4.5]decan-2-yl)benzamido)butane-1-sulfonic acid], the IC50 was greater than 5 µM.

As to `CCOc1cc(C(=O)OC)c(C2CC2)cc1CN1CCC2(CC1)CC(=O)N(c1ccc(C(=O)NCCCP(=O)(O)O)cc1)C2` [Example 32, (3-(4-(8-(5-cyclopropyl-2-ethoxy-4-(methoxycarbonyl)benzyl)-3-oxo-2,8-diazaspiro[4.5]decan-2-yl)benzamido)propyl)phosphonic acid], the IC50 was greater than 5 µM.

For the compound `CCOc1cc(C(=O)OC)c(C2CC2)cc1CN1CCC2(CC1)CC(=O)N(c1ccc(C(=O)NCCCP(C)(=O)O)cc1)C2` [Example 33, (3-(4-(8-(5-cyclopropyl-2-ethoxy-4-(methoxycarbonyl)benzyl)-3-oxo-2,8-diazaspiro[4.5]decan-2-yl)benzamido)propyl)(methyl)phosphinic acid], the IC50 was greater than 5 µM.

In turn, `CCOc1cc(C(=O)OC)c(C2CC2)cc1CN1CCC2(CC1)CC(=O)N(c1ccc(C(=O)N(CCO)CCO)cc1)C2` [Example 34, methyl 4-((2-(4-(bis(2-hydroxyethyl)carbamoyl)phenyl)-3-oxo-2,8-diazaspiro[4.5]decan-8-yl)methyl)-2-cyclopropyl-5-ethoxybenzoate] came in with an IC50 of 1 to 5 µM.

With `CCOc1cc(C(=O)OC)c(C2CC2)cc1CN1CCC2(CC1)CC(=O)N(c1ccc(C(=O)NC[C@H](O)CO)cc1)C2` [Example 35, methyl (S)-2-cyclopropyl-4-((2-(4-((2,3-dihydroxypropyl)carbamoyl)phenyl)-3-oxo-2,8-diazaspiro[4.5]decan-8-yl)methyl)-5-ethoxybenzoate], the IC50 was in the range of 0.1 to 1 µM.

On to `CCOc1cc(C(=O)OC)c(C2CC2)cc1CN1CCC2(CC1)CC(=O)N(c1ccc(C(=O)NC[C@@H](O)CO)cc1)C2` [Example 36, methyl (R)-2-cyclopropyl-4-((2-(4-((2,3-dihydroxypropyl)carbamoyl)phenyl)-3-oxo-2,8-diazaspiro[4.5]decan-8-yl)methyl)-5-ethoxybenzoate], for which the 50% inhibitory concentration (IC50) was 0.1 to 1 µM.

Compound `CCOc1cc(C(=O)OC)c(C2CC2)cc1CN1CCC2(CC1)CC(=O)N(c1ccc(C(=O)NC[C@H](O)[C@@H](O)[C@H](O)[C@H](O)CO)cc1)C2` [Example 37, methyl 2-cyclopropyl-5-ethoxy-4-((3-oxo-2-(4-(((2S,3R,4R,5R)-2,3,4,5,6-pentahydroxyhexyl)carbamoyl)phenyl)-2,8-diazaspiro[4.5]decan-8-yl)methyl)benzoate] displayed an IC50 of 1 to 5 µM.

The compound `CCOc1cc(C(=O)OC)c(C2CC2)cc1CN1CCC2(CC1)CC(=O)N(c1ccc(C(=O)NCCNC(N)=O)cc1)C2` [Example 38, methyl 2-cyclopropyl-5-ethoxy-4-((3-oxo-2-(4-((2-ureidoethyl)carbamoyl)phenyl)-2,8-diazaspiro[4.5]decan-8-yl)methyl)benzoate] registered an IC50 of 0.1 to 1 µM.

As to `CCOc1cc(C(=O)OC)c(C2CC2)cc1CN1CCC2(CC1)CC(=O)N(c1ccc(C(=O)NCCCNC(N)=O)cc1)C2` [Example 39, methyl 2-cyclopropyl-5-ethoxy-4-((3-oxo-2-(4-((3-ureidopropyl)carbamoyl)phenyl)-2,8-diazaspiro[4.5]decan-8-yl)methyl)benzoate], the half-maximal inhibitory concentration (IC50) lay in the range of 0.1 to 1 µM.

As to `CCOc1cc(C(=O)OC)c(C2CC2)cc1CN1CCC2(CC1)CC(=O)N(c1ccc(C(=O)NCCN3CCNC3=O)cc1)C2` [Example 40, methyl 2-cyclopropyl-5-ethoxy-4-((3-oxo-2-(4-((2-(2-oxoimidazolidin-1-yl)ethyl)carbamoyl)phenyl)-2,8-diazaspiro[4.5]decan-8-yl)methyl)benzoate], the IC50 lay in the range of 0.1 to 1 µM.

As to `CCOc1cc(C(=O)OC)c(C2CC2)cc1CN1CCC2(CC1)CC(=O)N(c1ccc(C(=O)N(C)CCCC(=O)O)cc1)C2` [Example 41, 4-(4-(8-(5-cyclopropyl-2-ethoxy-4-(methoxycarbonyl)benzyl)-3-oxo-2,8-diazaspiro[4.5]decan-2-yl)-N-methylbenzamido)butanoic acid], the IC50 is greater than 5 µM.

In the case of `CCOc1cc(C(=O)OC)c(C2CC2)cc1CN1CCC2(CC1)CC(=O)N(c1ccc(C(=O)N3CC(CO)(CO)C3)cc1)C2` [Example 42, methyl 4-((2-(4-(3,3-bis(hydroxymethyl)azetidine-1-carbonyl)phenyl)-3-oxo-2,8-diazaspiro[4.5]decan-8-yl)methyl)-2-cyclopropyl-5-ethoxybenzoate], the IC50 fell in the range of 1 to 5 µM.

`CCOc1cc(C(=O)OC)c(C2CC2)cc1CN1CCC2(CC1)CC(=O)N(c1ccc(C(=O)N3C[C@H](O)[C@@H](O)C3)cc1)C2` [Example 43, methyl 2-cyclopropyl-4-((2-(4-((3S,4S)-3,4-dihydroxypyrrolidine-1-caibonyl)phenyl)-3-oxo-2,8-diazaspiro[4.5]decan-8-yl)methyl)-5-ethoxy benzoate] displayed a half-inhibitory concentration (IC50) greater than 5 µM.

The compound `CCOc1cc(C(=O)OC)c(C2CC2)cc1CN1CCC2(CC1)CC(=O)N(c1ccc(C(=O)NCCCS(N)(=O)=O)cc1)C2` [Example 44, methyl 2-cyclopropyl-5-ethoxy-4-((3-oxo-2-(4-((3-sulfamoylpropyl)carbamoyl)phenyl)-2,8-diazaspiro[4.5]decan-8-yl)methyl)benzoate] had an IC50 of 0.1 to 1 µM.

Regarding `CCOc1cc(C(=O)OC)c(C2CC2)cc1CN1CCC2(CC1)CC(=O)N(c1ccc(C(=O)NCCOCC[N+]34CCN(CC3)CC4)cc1)C2` [Example 45, 1-(2-(2-(4-(8-(5-cyclopropyl-2-ethoxy-4-(methoxycarbonyl)benzyl)-3-oxo-2,8-diazaspiro[4.5]decan-2-yl)benzamido)ethoxy)ethyl)-1,4-diazabicyclo[2.2.2]octan-1-ium], the IC50 is greater than 5 µM.

The compound `CCOc1cc(C(=O)OC)c(C2CC2)cc1CN1CCC2(CC1)CC(=O)N(c1ccc(C(=O)NCCCN)cc1)C2` [Example 46, methyl 4-((2-(4-((3-aminopropyl)carbamoyl)phenyl)-3-oxo-2,8-diazaspiro[4.5]decan-8-yl)methyl)-2-cyclopropyl-5-ethoxybenzoate] displayed an IC50 greater than 5 µM.

In turn, `CCOc1cc(C(=O)OC)c(C2CC2)cc1CN1CCC2(CC1)CC(=O)N(c1ccc(C(=O)NCCCCP(=O)(O)O)cc1)C2` [Example 47, (4-(4-(8-(5-cyclopropyl-2-ethoxy-4-(methoxycarbonyl)benzyl)-3-oxo-2,8-diazaspiro[4.5]decan-2-yl)benzamido)butyl)phosphonic acid] displayed an IC50 of 0.1 to 1 µM.

The record behind these values is patent US20230113609A1, “SSTR5 ANTAGONISTS” (Kallyope, Inc., priority 2019, published 2023).
